7 compounds from patent US11639364B2, “Potent sialyltransferase inhibitors” (STICHTING RADBOUD UNIVERSITEIT, priority 2018, dated 2023) can be followed below.

As a reminder, the IC50 is the midpoint of a concentration-inhibition curve.

One assay concerns B16-F10 cells. The assay is described as follows: Inhibition of cell surface sialylation, lectin staining and flow cytometry, B16-F10 cells. As to conditions: Mus musculus, 72 h, three days. The class given is cell-based, Mouse. On the procedure:
(§1) Mouse B16-F10 melanoma cells (ATCC CRL-6475) were cultured in Minimum Essential Medium (MEM) (Gibco, Invitrogen, Carlsbad, Calif.) containing 5% fetal bovine serum (FBS) (Greiner Bio-one, Frickenhausen, Germany), 1% MEM non-essential amino acids (Gibco), 0.15% sodium bicarbonate (Gibco), 1 mM sodium pyruvate (Gibco), 1.5% MEM vitamins (Gibco), 1% antibiotic-antimycotic solution (50 U/ml penicillin, 50 μg/ml streptomycin and 125 ng/ml amphotericin B) (Gibco). The murine 9464D neuroblastoma cell line was cultured in Dulbecco's Modified Eagle's Medium (DMEM, Glutamax, Gibco) with 10% FBS, 1% non-essential amino acids, 50 μM 2-mercaptoethanol (Sigma-Aldrich) and 1% antibiotic-antimycotic solution (Kroesen et al., 2014, DOI: 10.1002/ijc.28463, Stauffer et al., 2012, DOI: 10.3109/07357907.2012.664670). The murine EL4 T lymphocyte cell line (ATCC TIB-39) was cultured in Iscove's Modified Dulbecco's Medium (IMDM, Gibco) supplemented with 5% FBS and 1% antibiotic-antimycotic solution. Human HEK293 (ATCC CRL-1573) kidney cells and human HeLa (ATCC CCL-2) cervical cancer cells were cultured in DMEM containing 10% FBS, 2 mM glutamine (Lonza, Walkersville, Md.) and 1% antibiotic-antimycotic solution. Human monocytic THP-1 cells (TIB-202, ATCC) were cultured in RRMI-1640 medium (Gibco) supplemented with 10% FBS, 2 mM glutamine and 1% antibiotic-antimycotic solution. All cell lines were cultured in a humidified 5% CO2 incubator at 37° C.
(§2) To assess the effect of the synthesized compounds on cell surface sialylation, different murine and human cell lines were cultured for three days in the presence of 0-204.8 μM amide and carbamate fluorine sialic acids. Cells treated with an equal final percentage of DMSO were used as control and all cells were subjected to lectin staining and flow cytometry as described below. To investigate the longevity of the effect of the fluorine sialic acids on cell surface sialylation, B16-F10 cells treated with 25.6 μM or 51.2 μM were thoroughly washed with medium to remove fluorine sialic acids from the culture and reseeded. During a period of six days, cells were harvested every day and sialylation was assessed by flow cytometry.
(§3) For the lectin staining, all cells were harvested and washed with 1× carbo-free blocking solution (Vector Laboratories, Inc., Burlingame, Calif., USA) and stained for 45 minutes at 4° C. in 1× carbo-free blocking solution containing 1 mM CaCl2), 1 mM MgCl2 and biotinylated MALII (5 μg/ml), SNA-1 (1 μg/ml) or PNA (5 μg/ml) all obtained from Vector Laboratories Inc. MALII recognizes α2,3-linked sialic acids, SNA-1 recognizes α2,6-linked sialic acids and PNA binds to terminal 3-galactose. In addition, B16-F10 cells were stained with 2 μg/ml biotinylated AAL (α-linked Fucose), LCA (α-linked Mannose), PHA-L (complex glycans), GSL-I (α-linked Galactose and N-Acetylgalactosamine), WGA (chitobiose), SJA (β-linked Galactose and N-Acetylgalactosamine) and PSA (Glucose and Mannose) purchased from Vector Laboratories Inc. Next, the cells were washed thrice in PBA (1×PBS, 1% BSA, and 0.02% sodium azide) and stained for 10 minutes at 4° C. with 2 μg/ml streptavidin-phycoerythrin (PE) (BD Pharmingen, Franklin Lakes, N.J., USA). The cells were washed thrice again with PBA and fluorescence was assessed using a CyAn ADP flow cytometer (BD Biosciences, San Jose, Calif.) followed by analysis with FlowJo software (Tree Star Inc., Ashland, Oreg.). Untreated cells stained with streptavidin-PE only served as background fluorescence control. The percentages lectin binding was calculated by normalizing the mean fluorescence intensity values from the treated cells with the DMSO controls.
(§4) IC50 values and statistics were calculated using Prism 5.03 (GraphPad Software, Inc., La Jolla, Calif.). Statistical significance between the different groups was calculated using one-way ANOVA followed by Bonferroni post-hoc testing and P-values<0.05 were considered significant (p<0.05 *, p<0.01 **, p<0.001 ***). […]
(In flow cytometry, cells or beads pass a laser one at a time.)

For another assay, the system named is HeLa cells. Put plainly: Inhibition of cell surface sialylation, lectin staining and flow cytometry, HeLa cells. In kind it is cell-based, human. As to conditions: Homo sapiens, 72 h, three days. On the procedure: as §1, §2, §3, §4
The next assay deals with EL4 cells. The assay is described as follows: Inhibition of cell surface sialylation, lectin staining and flow cytometry, EL4 cells. The class given is cell-based, murine. As to conditions: Mus musculus, 72 h, three days. On the procedure:
as §1, §2, §3, §4

For a further assay, the system named is THP-1 cells. Put plainly: Inhibition of cell surface sialylation, lectin staining and flow cytometry, THP-1 cells. In kind it is cell-based, Human. As to conditions: Homo sapiens, 72 h, three days. How it is done: as §1, §2, §3, §4
Another assay deals with 9464D cells. The assay is described as follows: Inhibition of cell surface sialylation, lectin staining and flow cytometry, 9464D cells. The class given is cell-based, murine. Conditions: Mus musculus, 72 h, three days. On the procedure: as §1, §2, §3, §4
Another assay relates to HEK293 cells. Put plainly: Inhibition of cell surface sialylation, lectin staining and flow cytometry, HEK293 cells. The class given is cell-based, Human. As to conditions: Homo sapiens, 72 h, three days. On the procedure: as §1, §2, §3, §4
Where [1] appears, read: MALII lectin binding, read-out: α2,3-Sia IC50.
Where [2] appears, read: SNA-I lectin binding, read-out: α2,6-Sia IC50.

Molecules are shown by their SMILES. Like-named read-outs stand apart in the source and are kept apart here.

For the compound `COC(=O)C1(OC(C)=O)OC([C@H](OC(C)=O)[C@@H](COC(C)=O)OC(C)=O)[C@H](NC(=O)CCl)C(OC(C)=O)C1F` (stereo partly drawn) [SiaFAcC, Methyl 5-(chloroacetamido)-2,4,7,8,9-penta-O-acetyl-3,5-dideoxy-3-fluoro-D-glycero-β-galacto-non-2-ulopyranosonate, reference compound], the IC50 with B16-F10 cells (setting [1]) was found to be 18 ± 2.12 µM.
For `C=CCOC(=O)N[C@@H]1C(OC(C)=O)C(F)C(OC(C)=O)(C(=O)OC)OC1[C@H](OC(C)=O)[C@@H](COC(C)=O)OC(C)=O` (stereo partly drawn) [SiaFAII, 5-(alloxycarbamado)-2,4,7,8,9-penta-O-acetyl-3,5-dideoxy-3-fluoro-D-glycero-β-galacto-non-2-ulopyranosonate], the IC50 with HeLa cells (setting [1]) amounted to 1.77 ± 1.78 µM; with HeLa cells (setting [2]) it was 2.04 ± 1.4 µM; in the assay on EL4 cells (setting [1]), 39.9 ± 4.95 µM; in the assay with EL4 cells (setting [2]), 50.9 ± 6.44 µM; in the assay on B16-F10 cells (setting [1]), 1.39 ± 0.21 µM; in the assay with B16-F10 cells (setting [2]), 2.87 ± 0.8 µM. Besides, the IC50 was determined as 0.41 ± 0.73 µM in the assay on THP-1 cells (setting [1]); 0.38 µM in the assay with THP-1 cells (setting [2]); 6.91 ± 3.56 µM with 9464D cells (setting [1]); 9.64 ± 3.93 µM in the assay with 9464D cells (setting [2]); 1.83 ± 1.19 µM in the assay on HEK293 cells (setting [1]); 1.68 ± 3.2 µM with HEK293 cells (setting [2]).
In the case of `COC(=O)N[C@@H]1C(OC(C)=O)C(F)C(OC(C)=O)(C(=O)OC)OC1[C@H](OC(C)=O)[C@@H](COC(C)=O)OC(C)=O` (stereo partly drawn) [SiaFMe, Methyl 5-(methylcarbamado)-2,4,7,8,9-penta-O-acetyl-3,5-dideoxy-3-fluoro-D-glycero-β-galacto-non-2-ulopyranosonate], the IC50 is 6.33 ± 3.26 µM in the assay on HeLa cells (setting [1]); 5.23 ± 1.88 µM in the assay on HeLa cells (setting [2]); 59.2 ± 4.17 µM in the assay with EL4 cells (setting [1]); 52.7 ± 5.45 µM in the assay with EL4 cells (setting [2]); 4.89 ± 0.25 µM in the assay with B16-F10 cells (setting [1]); 7.54 ± 1.34 µM in the assay with B16-F10 cells (setting [2]). The IC50 in the assay on THP-1 cells (setting [1]) came to 1.98 ± 0.91 µM; in the assay with THP-1 cells (setting [2]) it was 2.65 ± 1.6 µM; with 9464D cells (setting [1]) it was 18.3 ± 2.67 µM; in the assay on 9464D cells (setting [2]) it was 29.6 ± 4.67 µM; in the assay on HEK293 cells (setting [1]), 3.31 ± 1.24 µM; in the assay on HEK293 cells (setting [2]) it was 4.77 ± 2.8 µM.
In the case of `C#CCOC(=O)N[C@@H]1C(OC(C)=O)C(F)C(OC(C)=O)(C(=O)OC)OC1[C@H](OC(C)=O)[C@@H](COC(C)=O)OC(C)=O` (stereo partly drawn) [SiaFPoc, Methyl 5-(propargylcarbamado)-2,4,7,8,9-penta-O-acetyl-3,5-dideoxy-3-fluoro-D-glycero-β-galacto-non-2-ulopyranosonate], the IC50 with HeLa cells (setting [1]) turned out to be 1.65 ± 2.27 µM; in the assay with HeLa cells (setting [2]) it was 1.37 ± 0.81 µM; with EL4 cells (setting [1]), 51 ± 8.62 µM; in the assay with EL4 cells (setting [2]), 51.6 ± 2.62 µM; with B16-F10 cells (setting [1]) it was 0.72 ± 0.2 µM; with B16-F10 cells (setting [2]), 2.59 ± 0.07 µM. In addition, the IC50 in the assay on THP-1 cells (setting [1]) was 0.42 ± 0.9 µM; in the assay with THP-1 cells (setting [2]) it was 0.44 µM; in the assay with 9464D cells (setting [1]) it was 10.7 ± 2.85 µM; in the assay on 9464D cells (setting [2]) it was 40.2 ± 6.56 µM; in the assay with HEK293 cells (setting [1]) it was 1.19 ± 1.47 µM; in the assay with HEK293 cells (setting [2]), 5.42 ± 1.4 µM.
For the compound `COCCOC(=O)N[C@@H]1C(OC(C)=O)C(F)C(OC(C)=O)(C(=O)OC)OC1[C@H](OC(C)=O)[C@@H](COC(C)=O)OC(C)=O` (stereo partly drawn) [SiaFMox, Methyl 5-(2-methoxy-ethylcarbamado)-2,4,7,8,9-penta-O-acetyl-3,5-dideoxy-3-fluoro-D-glycero-R-galacto-non-2-ulopyranosonate], the half-maximal inhibitory concentration (IC50) was found to be 25.5 ± 2.53 µM with B16-F10 cells (setting [1]) and 32.4 ± 1.38 µM with B16-F10 cells (setting [2]).
`COC(=O)C1(OC(C)=O)OC([C@H](OC(C)=O)[C@@H](COC(C)=O)OC(C)=O)[C@H](NC(=O)OCc2ccccc2)C(OC(C)=O)C1F` (stereo partly drawn) [SiaFCbz, Methyl 5-(benzylcarbamado)-2,4,7,8,9-penta-O-acetyl-3,5-dideoxy-3-fluoro-D-glycero-β-galacto-non-2-ulopyranosonate, reference compound]: in the assay on B16-F10 cells (setting [1]), the IC50 worked out at 14.5 ± 3.51 µM.
For `CCCCOC(=O)N[C@@H]1C(OC(C)=O)C(F)C(OC(C)=O)(C(=O)OC)OC1[C@H](OC(C)=O)[C@@H](COC(C)=O)OC(C)=O` (stereo partly drawn) [SiaFnBu, Methyl 5-(butylcarbamado)-2,4,7,8,9-penta-O-acetyl-3,5-dideoxy-3-fluoro-D-glycero-β-galacto-non-2-ulopyranosonate], the IC50 in the assay on B16-F10 cells (setting [1]) is 7.45 ± 0.92 µM; in the assay on B16-F10 cells (setting [2]), 7.91 ± 1.95 µM.
